Our source for the Times observed values is patent US10168342B2, “Lipid probes and uses thereof” (THE SCRIPPS RESEARCH INSTITUTE, priority 2015, dated 2019).

Common to all, as to assay: isoTOP-ABPP mapping of AEA-DA-modified peptides in Neuro2a cells
What all share (format): cell-based

For assay [1], the target named is T1, AEA-DA-modified peptides in Neuro2a cells (Mus musculus, UniProt P34884).
T1 construct: endogenous in cells; host or cells: Neuro2a
To be noted: AEA-DA-modified peptide MIF P34884 13-38, SEQ ID NO 60; probe 100 μM, 12 replicates. The method, then:
(§1) Experiments were performed as described above using the AEA-DA probe (100 μM) in 3.0 mL of DMEM (serum-free) and Neuro2A cells without (twelve replicates; ten biological; two technical). For the ligand competition study, cells were treated with the AEA-DA probe (50 μM) and DMSO or MJN228 (50 μM) treatment. Cells were harvested and processed as described above. Whole cell lysates (500 μL at 1.5 mg/mL) were processed for MS analysis using the previously described isoTOPABPP protocol (Speers and Cravatt, 2005). In brief, for global mapping of AEA-DA-modified peptides, proteomes were split into two fractions, which were subjected to click chemistry conditions with either light or heavy isotopically labeled TEV-tags. For the […] competition study, proteomes were subjected to click chemistry conditions with either light (DMSO) or heavy (MJN228-treated) TEV-tags. Light and heavy-tagged proteomes in each experiment were then combined, and, following enrichment of probe-labeled targets using streptavidin beads, proteins were digested on-bead with trypsin and remaining immobilized peptides released with a subsequent TEV protease digestion. The resulting probe-modified peptides were collected for MS analysis, which was performed as described above with differences in the salt bumps applied in the chromatographic gradients which were 0%, 30%, 60%, 90% and 100% NH4OAc (500 mM). The protein identification searches of the MS data were performed using the same software packages described above with the following changes applied to identify the peptides modified with AEA-DA and the cleaved TEV tag. All amino acids were considered as possible residues for modification. To facilitate the computational searches, sets of up to 3 amino acids were searched using ProLuCID and filtered with DTASelect as described above. The mass of the modification used to search for probe-modified peptides was +727.4745 m/z for the probe plus the light TEV-tag and +733.4831 m/z for the heavy counterpart. […] For global mapping experiments, AEA-DA-modified peptides were expected to show a ratio of “heavy” and “light” signals of ˜1.0 (0.5<ratio<2.0) and were required to have been detected in at least two of the twelve replicate experiments.
(§2) In some embodiments, the ligands are tested for their interaction to NUCB1 in cells. […] MJN228 inhibited lipid probe binding to NUCB1 at concentrations as low as 10 μM, with near-maximal inhibition observed at ˜25 μM (FIG. 16A). […] The site of arachidonoyl probe (and MJN228) binding to NUCB1 was mapped in cells, which was accomplished by treating Neuro2A cells with the AEA-DA probe (50 μM) in the presence of DMSO or MJN228 (50 μM), followed by UV irradiation, CuAAC conjugation of AEA-DA-labeled proteins to isotopically light (DMSO-treated cells) and heavy (MJN228-treated cells) azide-biotin tags featuring a TEV protease-cleavable linker, and LCMS/MS analysis using a previously described platform, termed isoTOP-ABPP, for mapping probe-modified peptides in proteomes (Speers and Cravatt, 2005). A AEA-DA labeled peptide was identified for NUCB1 (aa 53-68) in DMSO-treated cells and the signals for this peptide were substantially (>5-fold) reduced in MJN228-treated cells (FIG. 15C). This AEA-DA labeling site was confirmed using recombinant, purified hNUCB1 and tandem MS analysis which narrowed down the site of probe modification to His67 (FIGS. 16B and 16C).

In assay [2] the target is T2, AEA-DA-modified peptides in Neuro2a cells (Mus musculus, UniProt P47867).
T2 construct: endogenous in cells; host or cells: Neuro2a
To be noted: AEA-DA-modified peptide SCG3 P47867 178-203, SEQ ID NO 97; probe 100 μM, 12 replicates. The method, then: as §1, §2

Assay [3] has as its target T3, AEA-DA-modified peptides in Neuro2a cells (Mus musculus, UniProt Q64310).
T3 construct: endogenous in cells; host or cells: Neuro2a
To be noted: probe 100 μM, 12 replicates. The protocol:
as §1, §2

Assay [4] addresses T4, AEA-DA-modified peptides in Neuro2a cells (Mus musculus, UniProt Q8R2Y8).
T4 construct: endogenous in cells; host or cells: Neuro2a
To be noted: AEA-DA-modified peptide PTRH2 Q8R2Y8 35-69, SEQ ID NO 93; probe 100 μM, 12 replicates. The protocol: as §1, §2

Assay [5] deals with T5, AEA-DA-modified peptides in Neuro2a cells (Mus musculus, UniProt Q91WC3).
T5 construct: endogenous in cells; host or cells: Neuro2a
As to conditions: AEA-DA-modified peptide ACSL6 Q91WC3 408-420, SEQ ID NO 3; probe 100 μM, 12 replicates. The method, then: as §1, §2

Assay [6] has as its target T6, AEA-DA-modified peptides in Neuro2a cells (Mus musculus, UniProt Q99K48).
T6 construct: endogenous in cells; host or cells: Neuro2a
As to conditions: AEA-DA-modified peptide NONO Q99K48 122-138, SEQ ID NO 69; probe 100 μM, 12 replicates. The method, then: as §1, §2

Assay [7] concerns the target T7, AEA-DA-modified peptides in Neuro2a cells (Mus musculus, UniProt Q9CQV8).
T7 construct: endogenous in cells; host or cells: Neuro2a
To be noted: AEA-DA-modified peptide YWHAB Q9CQV8 196-225, SEQ ID NO 120; probe 100 μM, 12 replicates. The protocol:
as §1, §2

Assay [8] concerns the target T8, AEA-DA-modified peptides in Neuro2a cells (Mus musculus, UniProt Q99KQ4).
T8 construct: endogenous in cells; host or cells: Neuro2a
As to conditions: probe 100 μM, 12 replicates. The protocol:
as §1, §2

The target of assay [9] is T9, AEA-DA-modified peptides in Neuro2a cells (Mus musculus, UniProt P61759).
T9 construct: endogenous in cells; host or cells: Neuro2a
To be noted: AEA-DA-modified peptide VBP1 P61759 153-178, SEQ ID NO 119; probe 100 μM, 12 replicates. The method, then:
as §1, §2

Assay [10] has as its target T10, AEA-DA-modified peptides in Neuro2a cells (Mus musculus, UniProt Q9QUM9).
T10 construct: endogenous in cells; host or cells: Neuro2a
To be noted: AEA-DA-modified peptide PSMA6 Q9QUM9 103-117, SEQ ID NO 89; probe 100 μM, 12 replicates. The protocol:
as §1, §2

In assay [11] the target is T11, AEA-DA-modified peptides in Neuro2a cells (Mus musculus, UniProt Q9DC61).
T11 construct: endogenous in cells; host or cells: Neuro2a
As to conditions: AEA-DA-modified peptide PMPCA Q9DC61 428-451, SEQ ID NO 88; probe 100 μM, 12 replicates. The method, then:
as §1, §2

T3 sequence (Q64310 whole entry): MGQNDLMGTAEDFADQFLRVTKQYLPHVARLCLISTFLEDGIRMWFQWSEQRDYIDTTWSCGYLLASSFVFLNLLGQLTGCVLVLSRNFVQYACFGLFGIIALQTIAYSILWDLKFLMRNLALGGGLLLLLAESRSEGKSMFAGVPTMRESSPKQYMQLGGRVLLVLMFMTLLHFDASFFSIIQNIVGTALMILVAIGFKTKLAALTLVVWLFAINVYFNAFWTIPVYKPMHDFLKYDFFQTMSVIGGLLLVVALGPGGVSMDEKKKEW
T8 sequence (Q99KQ4 whole entry): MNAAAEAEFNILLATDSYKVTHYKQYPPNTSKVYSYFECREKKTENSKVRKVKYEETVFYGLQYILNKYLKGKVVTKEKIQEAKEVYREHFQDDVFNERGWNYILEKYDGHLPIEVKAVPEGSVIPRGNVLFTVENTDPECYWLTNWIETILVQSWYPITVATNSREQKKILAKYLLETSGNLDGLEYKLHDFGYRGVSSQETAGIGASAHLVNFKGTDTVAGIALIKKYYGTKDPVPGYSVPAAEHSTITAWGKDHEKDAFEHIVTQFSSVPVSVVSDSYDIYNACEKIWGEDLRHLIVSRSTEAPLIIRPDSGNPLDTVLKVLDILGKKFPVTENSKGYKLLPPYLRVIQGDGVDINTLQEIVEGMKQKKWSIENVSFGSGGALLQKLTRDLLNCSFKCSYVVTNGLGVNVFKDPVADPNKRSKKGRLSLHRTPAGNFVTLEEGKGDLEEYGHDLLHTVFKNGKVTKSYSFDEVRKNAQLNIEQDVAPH
T2 sequence (P47867 23-471): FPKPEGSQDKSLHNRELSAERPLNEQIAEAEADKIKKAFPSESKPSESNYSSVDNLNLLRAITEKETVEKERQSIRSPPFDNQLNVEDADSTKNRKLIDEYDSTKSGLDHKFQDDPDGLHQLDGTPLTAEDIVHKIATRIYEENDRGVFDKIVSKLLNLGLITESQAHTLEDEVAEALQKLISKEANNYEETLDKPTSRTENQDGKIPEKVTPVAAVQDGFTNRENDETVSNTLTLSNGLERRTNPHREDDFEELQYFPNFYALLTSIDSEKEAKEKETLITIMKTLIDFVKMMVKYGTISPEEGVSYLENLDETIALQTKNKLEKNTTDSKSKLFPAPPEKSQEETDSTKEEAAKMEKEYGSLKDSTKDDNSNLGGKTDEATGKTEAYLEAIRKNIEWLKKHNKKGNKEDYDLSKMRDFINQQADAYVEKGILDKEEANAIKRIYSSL
T9 sequence (P61759 whole entry): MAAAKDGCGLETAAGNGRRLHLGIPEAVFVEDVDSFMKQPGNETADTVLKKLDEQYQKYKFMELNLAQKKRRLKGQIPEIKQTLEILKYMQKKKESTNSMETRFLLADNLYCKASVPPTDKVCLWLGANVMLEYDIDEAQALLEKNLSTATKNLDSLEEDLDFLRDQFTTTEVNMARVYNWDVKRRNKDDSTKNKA
T4 sequence (Q8R2Y8 whole entry): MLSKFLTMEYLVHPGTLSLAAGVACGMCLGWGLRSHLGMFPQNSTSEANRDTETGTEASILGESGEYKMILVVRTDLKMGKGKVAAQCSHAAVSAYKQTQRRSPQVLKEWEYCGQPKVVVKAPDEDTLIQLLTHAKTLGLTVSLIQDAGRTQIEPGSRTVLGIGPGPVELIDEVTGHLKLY
T11 sequence (Q9DC61 34-524): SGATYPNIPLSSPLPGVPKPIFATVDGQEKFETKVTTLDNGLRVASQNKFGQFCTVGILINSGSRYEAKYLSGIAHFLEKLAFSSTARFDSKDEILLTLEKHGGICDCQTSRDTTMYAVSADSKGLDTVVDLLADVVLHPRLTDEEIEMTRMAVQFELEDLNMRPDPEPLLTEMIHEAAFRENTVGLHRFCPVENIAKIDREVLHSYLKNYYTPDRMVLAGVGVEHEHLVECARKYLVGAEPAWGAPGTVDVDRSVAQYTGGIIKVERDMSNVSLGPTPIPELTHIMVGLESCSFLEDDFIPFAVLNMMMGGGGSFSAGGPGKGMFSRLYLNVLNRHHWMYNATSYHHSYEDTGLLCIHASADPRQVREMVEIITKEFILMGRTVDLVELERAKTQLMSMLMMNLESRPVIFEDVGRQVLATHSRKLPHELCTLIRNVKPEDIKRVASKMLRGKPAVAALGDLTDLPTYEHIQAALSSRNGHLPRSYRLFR
T7 sequence (Q9CQV8 whole entry): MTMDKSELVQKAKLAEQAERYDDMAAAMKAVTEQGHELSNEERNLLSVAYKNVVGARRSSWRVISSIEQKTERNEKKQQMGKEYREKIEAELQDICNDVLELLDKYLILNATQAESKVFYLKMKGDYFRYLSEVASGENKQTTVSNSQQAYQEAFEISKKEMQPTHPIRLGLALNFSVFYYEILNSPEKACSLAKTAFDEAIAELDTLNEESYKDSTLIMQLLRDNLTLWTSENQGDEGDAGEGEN
T6 sequence (Q99K48 whole entry): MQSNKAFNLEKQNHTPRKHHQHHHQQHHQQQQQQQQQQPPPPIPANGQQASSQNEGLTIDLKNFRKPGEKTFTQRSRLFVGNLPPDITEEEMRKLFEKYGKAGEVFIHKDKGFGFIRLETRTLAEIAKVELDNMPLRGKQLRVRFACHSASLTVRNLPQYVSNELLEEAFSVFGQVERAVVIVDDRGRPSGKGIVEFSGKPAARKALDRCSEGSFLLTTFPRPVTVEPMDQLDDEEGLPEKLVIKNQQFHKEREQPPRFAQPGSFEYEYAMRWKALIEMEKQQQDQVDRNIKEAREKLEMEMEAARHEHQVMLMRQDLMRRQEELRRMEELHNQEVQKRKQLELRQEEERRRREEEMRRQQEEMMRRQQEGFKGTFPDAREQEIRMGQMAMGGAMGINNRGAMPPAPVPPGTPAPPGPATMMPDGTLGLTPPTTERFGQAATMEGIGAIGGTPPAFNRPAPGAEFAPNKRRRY
T5 sequence (Q91WC3 whole entry): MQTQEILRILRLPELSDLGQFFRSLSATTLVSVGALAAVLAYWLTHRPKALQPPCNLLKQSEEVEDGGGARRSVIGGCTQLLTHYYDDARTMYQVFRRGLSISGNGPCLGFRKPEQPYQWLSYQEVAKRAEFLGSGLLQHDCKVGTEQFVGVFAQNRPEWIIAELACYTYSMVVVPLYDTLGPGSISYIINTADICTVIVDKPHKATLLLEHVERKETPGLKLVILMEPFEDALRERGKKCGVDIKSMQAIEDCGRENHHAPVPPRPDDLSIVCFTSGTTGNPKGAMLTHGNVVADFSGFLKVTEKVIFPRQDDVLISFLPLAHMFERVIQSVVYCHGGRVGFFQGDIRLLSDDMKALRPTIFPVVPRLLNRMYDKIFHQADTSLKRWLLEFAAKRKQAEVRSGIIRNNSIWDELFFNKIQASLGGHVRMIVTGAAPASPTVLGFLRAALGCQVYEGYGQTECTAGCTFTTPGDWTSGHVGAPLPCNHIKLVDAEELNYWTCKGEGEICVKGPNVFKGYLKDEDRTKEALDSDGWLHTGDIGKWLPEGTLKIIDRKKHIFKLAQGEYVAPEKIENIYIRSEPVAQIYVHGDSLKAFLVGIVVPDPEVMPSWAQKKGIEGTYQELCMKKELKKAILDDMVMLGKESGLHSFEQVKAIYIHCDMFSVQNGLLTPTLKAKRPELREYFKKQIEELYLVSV
T10 sequence (Q9QUM9 whole entry): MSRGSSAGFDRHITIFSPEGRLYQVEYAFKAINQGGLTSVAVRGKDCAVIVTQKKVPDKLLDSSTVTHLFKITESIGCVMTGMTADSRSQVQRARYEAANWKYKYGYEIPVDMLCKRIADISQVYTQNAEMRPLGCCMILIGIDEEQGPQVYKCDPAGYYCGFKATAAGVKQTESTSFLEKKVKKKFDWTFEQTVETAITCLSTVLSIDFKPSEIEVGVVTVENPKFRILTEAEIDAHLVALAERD

Consider `C#CCCCC1(CC/C=C\C/C=C\C/C=C\CCCC(=O)NCCO)N=N1` [AEA-DA, (5Z,8Z,11Z)-N-(2-hydroxyethyl)-14-(3-(pent-4-yn-1-yl)-3H-diazirin-3-yl)tetradeca-5,8,11-trienamide], for which the Times observed was determined as 4 in [1]; 4 in assay [2]; 10 in assay [3] (AEA-DA-modified peptide SURF4 Q64310 2-20, SEQ ID NO 108); 3 in assay [3] (AEA-DA-modified peptide SURF4 Q64310 31-44, SEQ ID NO 109); 2 in assay [4]; 6 in [5]. Further, the Times observed is on record as 3 in assay [6]; 8 in assay [7]; 10 in [8] (AEA-DA-modified peptide NAMPT Q99KQ4 175-190, SEQ ID NO 64); 2 in assay [8] (AEA-DA-modified peptide NAMPT Q99KQ4 303-324, SEQ ID NO 65); 2 in assay [9]; 8 in [10]. Besides, the Times observed in assay [11] is recorded as 7.
